From US20170266147A1, “METHODS OF INCREASING LATENCY OF ANESTHETIC INDUCTION USING KETONE SUPPLEMENTATION” (priority 2016, published 2017)

Assays:
[1] = Blood levels of βHB after anesthetic induction in Sprague-Dawley rats; format: in vivo, rat; conditions: 7 days, relative to baseline levels, p=0.0001 (ketone diet), p=2.21E−05 (ketone salt), FIG. 2
Method: (§1) All data are presented as the mean±standard error of the mean (SEM). The effects of compositions comprising ketone supplements on latency to anesthetic induction, as well as on blood βHB levels, were compared to control and/or baseline levels. Data analysis was performed using GRAPHPAD PRISM® v6.0a. Results were considered significant when *p<0.05, **p<0.005, ***p<0.0005. Significance was determined by unpaired t-test.
(§2) Sprague-Dawley rats were fed a standard diet, a ketone diet, or a standard diet supplemented with an oral gavage of the ketone salt βHB mineral salt for 7 days. After 7 days, anesthesia was induced in an anesthesia chamber with isoflurane gas mixed with air, and the time until anesthetic induction was measured by a blinded observer.

[2] = test system: Sprague-Dawley rats; test: Time until anesthetic induction (isoflurane) in Sprague-Dawley rats; format: in vivo, rat; conditions: 7 days feeding/oral gavage, relative to standard diet fed controls, p=1.32E−6 (ketone diet), p=0.336 (ketone salt), FIG. 1
Method: Animals were kept in pairs of 2 rats under standard laboratory conditions (12 h:12 h light-dark cycle) in climate-controlled rooms at 22.0±2.0° C. Animal treatment and measuring procedures were performed in accordance with the University of South Florida Institutional Animal Care and Use Committee (IACUC) guidelines (Protocol#00001749). All efforts were made to reduce the number of animals used.
as §1, §2

[3] = test system: glucose transporter type 1-deficiency (G1D) syndrome mouse model; test: Time until anesthetic induction (isoflurane) in G1D mice; format: in vivo; conditions: for time required before anesthetic induction: relative to control mice fed a standard diet, p=0.0003 (KD), p=0.0136 (KS), p=0.0003 (KE), FIG. 4
Method: Animals were kept in groups of 2-5 mice under standard laboratory conditions (12 h:12 h light-dark cycle) in climate-controlled rooms at 22.0±2.0° C. Animal treatment and measuring procedures were performed in accordance with the University of South Florida Institutional Animal Care and Use Committee (IACUC) guidelines (Protocol#00000457). All efforts were made to reduce the number of animals used. The rodents were put under anesthesia once a week to perform blood draws.
All data are presented as the mean±standard error of the mean (SEM). The effects of compositions comprising ketone supplements on latency to anesthetic induction, as well as on blood βHB levels, were compared to control and/or baseline levels. Data analysis was performed using GRAPHPAD PRISM v6.0a. Results were considered significant when *p<0.05, **p<0.005, ***p<0.0005. Significance was determined by unpaired t-test.
G1D mice between 3-5 months old were chronically fed a standard rodent chow diet (SD), ketogenic diet (KD) (Table 1), standard rodent chow diet mixed with 20% ketone salt (βHB mineral salt) supplementation (SD+KS), or standard diet mixed with 20% ketone ester (1,3 butanediol-acetoacetate diester) supplementation (SD+KE) for 10 weeks. After 10 weeks, anesthesia was induced in an anesthesia chamber with isoflurane gas mixed with air, and the time until anesthetic induction was measured by a blinded observer. Ketone body levels in the blood were measured immediately after induction of anesthesia with a PRECISION XTRA® blood glucose and ketone monitoring kit.

βHB mineral salt [ketone salt]
blood levels of βHB after anesthetic induction [1]: significant increase
number of seconds required before anesthetic induction [2]: significant increase
delay in anesthetic induction normalized to body weight ([3]; 10 weeks, relative to animals fed a standard diet, p=0.0048 (KD), p=0.0338 (KS), FIG. 5): remained significant
time required before anesthetic induction ([3]; 10 weeks): significant increases

CC(=O)CC(=O)OCCC(C)OC(=O)CC(C)=O (stereo not drawn) [ketone ester, 1,3 butanediol-acetoacetate diester]
time required before anesthetic induction ([3]; 10 weeks): significant increases
number of seconds required before anesthetic induction ([3]; chronic 10 weeks, 20% in standard diet, relative to baseline levels, p=0.0035, FIG. 3): significant increase
